Test results taken from the supplement of paper PMC10307832.

Tests used:
Experiment in all cases: relative viability (nuclei count vs DMSO), 5 days (fraction); higher = more cells survive
4EGI-1 + Pictilisib = compound: O=C(O)C(Cc1ccccc1[N+](=O)[O-])=NNc1nc(-c2ccc(Cl)c(Cl)c2)cs1 (mixture of isomers) [4EGI-1] + CS(=O)(=O)N1CCN(Cc2cc3nc(-c4cccc5[nH]ncc45)nc(N4CCOCC4)c3s2)CC1 [Pictilisib] (partner 1 µM)
How it was run: (§1)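 Lung cancer cell lines were seeded in 1536-well plates and dosed by pin tool the next day, with either a single drug or a fixed anchor-drug dose combined with five library-drug doses (not always all listed) spaced in √10 steps. Five days later, one step fixed the cells and stained their nuclei (final 0.05% Triton X-100, 1% formaldehyde, 1 ug/ml Hoechst), and nuclei were counted on 4× images. Relative viability is the nuclei count in treated wells divided by the count in vehicle wells, and each value is the median of duplicate plates.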

XMD8-85 + Alpelisib = compound: CN1CCN(CC1)C2=CC(=C(C=C2)NC3=NC=C4C(=N3)N(C5=CC=CC=C5C(=O)N4C)C)OC [XMD8-85] + Cc1nc(NC(=O)N2CCC[C@H]2C(N)=O)sc1-c1ccnc(C(C)(C)C(F)(F)F)c1 [Alpelisib] (partner 2 µM)
How it was run: as §1

4EGI-1 + Pemetrexed = compound: O=C(O)C(Cc1ccccc1[N+](=O)[O-])=NNc1nc(-c2ccc(Cl)c(Cl)c2)cs1 (mixture of isomers) [4EGI-1] + Nc1nc2[nH]cc(CCc3ccc(C(=O)N[C@@H](CCC(=O)O)C(=O)O)cc3)c2c(=O)[nH]1 [Pemetrexed] (partner 0.2 µM)
How it was run: as §1

XMD8-85 + Palbociclib = compound: CN1CCN(CC1)C2=CC(=C(C=C2)NC3=NC=C4C(=N3)N(C5=CC=CC=C5C(=O)N4C)C)OC [XMD8-85] + CC(=O)c1c(C)c2cnc(Nc3ccc(N4CCNCC4)cn3)nc2n(C2CCCC2)c1=O [Palbociclib] (partner 0.5 µM)
How it was run: as §1

| Cell Line | relative viability (4EGI-1 + Pictilisib; first compound 0.5 µM) | relative viability (4EGI-1 + Pictilisib; first compound 1.581 µM) | relative viability (4EGI-1 + Pictilisib; first compound 5 µM) | relative viability (4EGI-1 + Pictilisib; first compound 15.81 µM) | relative viability (4EGI-1 + Pictilisib; first compound 50 µM) | relative viability (XMD8-85 + Alpelisib; first compound 0.08 µM) | relative viability (XMD8-85 + Alpelisib; first compound 0.253 µM) | relative viability (XMD8-85 + Alpelisib; first compound 0.8 µM) | relative viability (XMD8-85 + Alpelisib; first compound 2.53 µM) | relative viability (4EGI-1 + Pemetrexed; first compound 0.5 µM) | relative viability (4EGI-1 + Pemetrexed; first compound 1.581 µM) | relative viability (4EGI-1 + Pemetrexed; first compound 5 µM) | relative viability (4EGI-1 + Pemetrexed; first compound 15.81 µM) | relative viability (4EGI-1 + Pemetrexed; first compound 50 µM) | relative viability (XMD8-85 + Palbociclib; first compound 0.08 µM) | relative viability (XMD8-85 + Palbociclib; first compound 0.253 µM) | relative viability (XMD8-85 + Palbociclib; first compound 0.8 µM) | relative viability (XMD8-85 + Palbociclib; first compound 2.53 µM) | relative viability (XMD8-85 + Palbociclib; first compound 8 µM) | relative viability (XMD8-85 + Alpelisib; first compound 8 µM) |
| --- | --- | --- | --- | --- | --- | --- | --- | --- | --- | --- | --- | --- | --- | --- | --- | --- | --- | --- | --- | --- |
| LC-2-ad | 0.655 | 0.419 | 0.485 | 0.214 | 0.142 | 0.893 | 0.832 | 0.888 | 0.735 | 0.301 | 0.28 | 0.287 | 0.258 | 0.257 | 0.482 | 0.452 | 0.51 | 0.49 | 0.39 |  |
| EKVX | 0.443 | 0.371 | 0.442 | 0.262 | 0.405 | 0.776 | 0.996 | 0.935 | 0.986 | 0.418 |  | 0.407 | 0.325 | 0.368 | 0.285 | 0.369 | 0.446 | 0.487 | 0.372 | 0.899 |
| LCLC-103H | 0.57 | 0.541 | 0.591 | 0.574 | 0.451 | 0.88 | 1.04 | 0.933 | 0.961 | 0.443 | 0.409 | 0.474 | 0.435 | 0.477 | 0.483 | 0.445 | 0.489 | 0.484 | 0.405 | 0.728 |
| Calu-6 | 0.969 | 0.937 | 0.825 | 0.79 | 0.198 | 1.02 | 0.985 | 1.05 | 1.08 |  |  |  |  |  |  |  |  |  |  | 0.865 |
| NCI-H1299 | 0.863 | 0.824 | 1.03 | 0.732 | 0.163 | 1.15 | 0.948 | 1.08 | 1.07 |  |  |  |  |  |  |  |  |  |  | 0.874 |
| NCI-H1650 | 0.671 |  | 0.659 | 0.351 | 0.235 |  |  |  |  | 0.369 |  | 0.412 | 0.356 | 0.313 | 0.296 | 0.317 | 0.318 | 0.353 | 0.193 |  |
| EBC-1 | 0.519 | 0.405 | 0.416 | 0.269 | 0.19 | 0.871 | 0.94 |  | 0.694 |  |  |  |  |  |  |  |  |  |  | 0.336 |
| NCI-H1703 | 0.266 | 0.253 | 0.238 | 0.222 | 0.255 | 0.305 | 0.433 | 0.337 | 0.401 |  |  |  |  |  |  |  |  |  |  | 0.265 |
| NCI-H1648 |  |  |  |  |  |  |  |  |  | 0.728 | 0.782 | 0.745 | 0.643 | 0.689 | 0.251 | 0.261 | 0.225 | 0.258 | 0.288 |  |
| SW 900 |  |  |  |  |  |  |  |  |  | 0.496 | 0.513 | 0.485 | 0.405 | 0.136 | 0.553 | 0.535 | 0.594 | 0.496 | 0.324 |  |
| NCI-H522 |  |  |  |  |  |  |  |  |  | 0.948 | 0.981 | 1.07 | 1.06 | 0.718 | 1.09 | 1.03 | 0.822 | 0.737 | 0.648 |  |
| ChaGo-K-1 | 0.612 |  | 0.759 | 0.453 | 0.219 |  |  |  |  | 0.26 | 0.266 | 0.269 | 0.267 | 0.265 | 0.99 | 0.965 | 0.963 | 0.931 | 0.899 |  |
